Results on 6 molecules are retold here after patent US8158165B2, “Preventative treatment and remission of allergic diseases” (CSIR, priority 2006, dated 2012).

SMILES strings stand for the structures. Values joined by “and” are separate entries in the source; they are usually repeats but may differ in a detail not shown here. Identical values can stand only once. Some results are limits rather than exact numbers.

The test system of assay [1] is Ovalbumin-induced bronchoconstriction. The note with it: assay protocol reference data; cited from earlier work.
Assay [2] shares this test system. Put plainly: Pulmonary, Antigen/Lipoxygenase Metabolites, in Guinea Pigs (intratracheal pressure). Format: in vivo, guinea pig. As to the method: Assays were performed at MDS Pharma in Taiwan and reference standards used as an integral part of each assay to ensure the validity of the results obtained. The biological assay employed was the Pulmonary, Antigen/Lipoxygenase Metabolites assay and the diethyl ether extract of Siphonochilus aethiopicus was evaluated for possible activity in this in vivo assay.
WG-I-101 was suspended in 0.5% CMC/0.1% Tween 80. The test substance at a dose of 500 mg/kg was given orally twice daily for 3 consecutive days and an additional final dose was added at one hour before challenge of Ovalbuminon testing day. Dosing volume of 10 ml/kg was used. The formulation is summarized as follows: […]
Groups of 5 Dunkin-Hartley derived male guinea pigs weighing 400±50 g (final day) were employed. The animals were anesthetized with pentobarbital sodium (50 mg/kg IP, with an additional 15 mg/kg IP if needed). An aluminum plate kept at 37° C. through water flow from a bath was placed beneath the test animals to maintain body temperature. The trachea was cannulated and a rodent ventilator (Harvard, USA) was used for artificial ventilation (10 ml/kg, 50 breaths/minute). Through a side-arm of the cannula, intratracheal pressure (ITP) was measured using a Pneumatic pulse transducer (Narco Biosystem, USA). A carotid artery was cannulated (PE50, Clay Adams, USA) for measurements of blood pressure using a Stathem P23×L transducer (Viggo-Spectramed, USA) and heart rate was obtained from lead II ECG. Guinea pigs were sensitized with IP injections of ovalbumin (0.5 μg/0.5 ml/animal) and Al (OH)3 (1 mg/0.5 ml/animal) on days 1 and 8. The animals were then challenged with 15 μg/kg of Ovalbumin (IV) between days 19 and 23 and bronchopulmonary constriction was recorded as an increase in ITP.
(§1) The test substance at 500 mg/kg was administered orally twice daily for 3 consecutive days and an additional final dose was added on testing day, then, one hour after final dose, the animals were injected intravenously (1 ml/kg) with a “cocktail”: Indomethacin (10 mg/kg), Mepyramine (2 mg/kg), and Propranolol (100 μg/kg), followed by challenge with ovalbumin 5 minutes later. […] Bronchoalveolar lavage fluid was retrieved after instilling 5 ml of phosphate buffered saline for 2 times. TNF-α, IL-1β and IL-8 in bronchoalveolar lavage fluid (BALF) supernatants were measured with ELISA after ovalbumin challenge. One-way ANOVA followed by Dunnett's Test was applied for comparison between the vehicle control and test compound-treated groups. P<0.05 is considered significant.
Anesthetized and artificially ventilated guinea pigs previously sensitized were pretreated with Mepyramine 2 mg/kg, Indomethacin 10 mg/kg and Propranol 0.1 mg/kg for 5 minutes; arterial blood pressure (BP, mm Hg), heart rate (HR, beats/min.) and tracheal pressure (TP, cm H2O) were recorded after oral dosing for 3 days. At the end of chronic dosing, antigen (Ovalbumin 15 μg/kg IV)-induced increase in tracheal pressure (ITP) above an initial baseline of 6 cm H2O was then recorded as an indication of bronchoconstriction. Percent (%) inhibition is calculated according to the formula of [Increase in Tracheal Pressure (vehicle-treated)]−[Increase in Tracheal Pressure (test substance-treated)/[Increase in Tracheal Pressure (vehicle-treated)]×100%. • 1. ΔITP: Changes in ITP over corresponding baseline values; (−) Oval: Response to vehicle or test substance alone and before Ovalbumin challenge; (+) Oval: Changes in response to Ovalbumin challenge. • 2. % Control: ITP response to test substance, vehicle expressed in terms of percentage of the ITP response to Ovalbumin (15 μg/kg IV) in the vehicle-treated control (100%). • 3. […]
The trachea is cannulated and the guinea pig ventilated with a Harvard rodent respirator in a closed system. Tracheal pressure is recorded through a side-arm of the cannula connected to a P23ID Statham transducer. […]

Another assay has as its system IL-8. Kind of assay: IL-8 in bronchoalveolar lavage fluid after ovalbumin challenge (ELISA). Format: in vivo, guinea pig. The settings on record: BALF, WG-1-101 500 mg/kg PO, Phenidone 30 mg/kg IV. As to the method: as §1
(§2) Bronchoalveolar lavage fluid (BALF) samples in the WG-I-101-treated group were prepared for measurements of TNF-α, IL-1β and IL-8 after ovalbumin challenge. One-way ANOVA followed by Dunnett's test was applied for comparison between the vehicle control and test compound-treated groups. P<0.05 is considered significant.
(§3) Bronchoalveolar lavage fluid (BALF) samples in the WG-I-101 treated group were prepared for measurements of TNF-α, IL-1β and IL-8 after Ovalbumin challenge. TNF-α, IL-1β and IL-8 levels of each sample were assessed using TNF-α, IL-1β and IL-8 ELISA kits, respectively. […]
On the technique in general: ELISA stands for enzyme-linked immunosorbent assay.

Another assay relates to IL-1β. Put plainly: IL-1β in bronchoalveolar lavage fluid after ovalbumin challenge (ELISA). The settings on record: BALF, WG-1-101 500 mg/kg PO, Phenidone 30 mg/kg IV. Format: in vivo, guinea pig. As to the method: as §1, §2, §3
The subject of another assay is TNF-α. Put plainly: TNF-α in bronchoalveolar lavage fluid after ovalbumin challenge (ELISA). The note with it: BALF, WG-1-101 500 mg/kg PO, Phenidone 30 mg/kg IV. Format: in vivo, guinea pig. As to the method:
as §1, §2, §3

With `CN1[C@@H]2CC[C@H]1C[C@@H](OC(=O)C(CO)c1ccccc1)C2` (stereo partly drawn) [Atropine], the MED mg/kg i.v. in assay [1] is over 10 mg/kg.
Turning to `O=C(O)c1cc(=O)c2c(OCC(O)COc3cccc4oc(C(=O)O)cc(=O)c34)cccc2o1` [Cromolyn Sodium], the MED mg/kg i.v. in assay [1] was over 100 mg/kg.
Take `CCCc1c(OCCCCc2nnn[nH]2)ccc(C(C)=O)c1O` [LY-171883, 1[2-hyroxy-3-propyl-4-[4-(1H-tetrazol-5-yl)butoxy]phenyl]ethanone]: the MED mg/kg i.v. in assay [1] is 30 mg/kg.
Consider `CC(Cc1ccc(O)c(O)c1)C(C)Cc1ccc(O)c(O)c1` (stereo not drawn) [NDGA, nordihydroguaretic acid], for which, in assay [1], the MED mg/kg i.v. was 10 mg/kg.
Regarding `O=C1CCN(c2ccccc2)N1` [Phenidone], the “% Control” value in assay [2] (ITP response to test substance as % of Ovalbumin response in vehicle control) came out at 0%. Further, in assay [2] (group mean of 5, response to Ovalbumin 15 μg/kg IV, WG-1-101 500 mg/kg PO bidx3 & qdx1, Phenidone 30 mg/kg IV qdx1), the “ΔITP (cm H2O) (+) Oval, X ± SEM” value was determined as 1.8 ± 0.8 cm H2O. In addition, in assay [2] (group mean, before Ovalbumin challenge, WG-1-101 500 mg/kg PO bidx3 & qdx1, Phenidone 30 mg/kg IV qdx1), the “ΔITP (cm H2O) (−) Oval, X ± SEM” value worked out at 0 cm H2O. The “ΔITP (cm H2O) (−) Oval” value in assay [2] (individual animals N 1-5, before Ovalbumin challenge, WG-1-101 500 mg/kg PO bidx3 & qdx1, Phenidone 30 mg/kg IV qdx1) is recorded as 0 cm H2O. Further, in assay [2] (individual animals N 1-5, response to Ovalbumin 15 μg/kg IV, WG-1-101 500 mg/kg PO bidx3 & qdx1, Phenidone 30 mg/kg IV qdx1), the “ΔITP (cm H2O) (+) Oval” value is 4.8 cm H2O and 1.8 cm H2O and 1.2 cm H2O and 0.6 cm H2O (2×). In addition, in assay [2] (relative to vehicle-treated control, WG-1-101 500 mg/kg PO bidx3 & qdx1, Phenidone 30 mg/kg IV qdx1), the “% Inhibition of Ovalbumin-induced bronchoconstriction” value is on record as “(89) %”. In assay [1], the MED mg/kg i.v. is 30 mg/kg. Moreover, the “IL-8 Cont(pg/ml), X” value in the assay with IL-8 (group mean, * P<0.05 vs vehicle) is given as 0.97* pg/ml. The “IL-8 Cont(pg/ml)” value in the assay on IL-8 (individual animals N 1-5) is 3.63 pg/ml and 1.22 pg/ml and 0.00 pg/ml (3×). Besides, the “IL-1β (pg/ml), X” value in the assay on IL-1β (group mean) was found to be 1.21 pg/mL. Besides, in the assay on IL-1β (individual animals N 1-5), the “IL-1β” value is 3.10 pg/mL and 0.24 pg/mL and 0.46 pg/mL and 2.25 pg/mL and 0.00 pg/mL. The “TNF-α (pg/ml), X” value in the assay on TNF-α (group mean) worked out at 7.62 pg/mL. In addition, the “TNF-α” value with TNF-α (individual animals N 1-5) is 12.03 pg/mL and 7.0 pg/mL and 3.79 pg/mL and 8.96 pg/mL and 6.33 pg/mL.
Turning to `CC(C)(C)NCC(O)c1ccc(O)c(CO)c1` (stereo not drawn) [Salbutamol], the MED mg/kg i.v. in assay [1] is given as 0.1 mg/kg.
